Results: article PMC6792352, “Limited Chemical Structural Diversity Found to Modulate Thyroid Hormone Receptor in the Tox21 Chemical Library” (Environmental Health Perspectives, 2019)
Structures can show the parent of a compound that is named as a salt.

Assay: in vitro
Details: rat, gh3-tre-luc cells, AC50 (uM) modified / 1000

SMILES | CC50 at 24 h
CCCCOC(=O)c1ccc(N)cc1 [Butyl 4-aminobenzoate] | > 50 µM
N#Cc1c(F)cccc1F [2,6-Difluorobenzonitrile] | > 90 µM
CCCOCCOCCOCCO [2-[2-(2-Propoxyethoxy)ethoxy]ethanol] | > 90 µM
Nc1ccc(Cl)cc1Cl [2,4-Dichloroaniline] | > 90 µM
Oc1ccc2c(c1)Cc1ccccc1-2 [2-Hydroxyfluorene] | 77.9 µM
CCCCNC(=O)NCCCC [N,N'-Dibutylurea] | > 90 µM
O=C(c1ccccc1)C1CCC1 [Cyclobutyl phenyl ketone] | > 90 µM
Cc1c(N)cccc1Cl [3-Chloro-2-methylaniline] | > 90 µM
CC(C)[C@@H](Nc1ccc(C(F)(F)F)cc1Cl)C(=O)OC(C#N)c1cccc(Oc2ccccc2)c1 (stereo partly drawn) [tau-Fluvalinate] | > 90 µM
CN(C)CCN(Cc1ccc(Cl)cc1)c1ccccn1 [Chloropyramine hydrochloride] | 10.2 µM
Cc1ccc(C(=O)O)o1 [5-Methyl-2-furancarboxylic acid] | > 90 µM
CCCn1cnc2c1c(=O)n(CCCCC(C)=O)c(=O)n2C [Propentofylline] | > 50 µM
N[C@@H](Cc1c[nH]cn1)C(=O)O [L-Histidine hydrochloride] | > 50 µM
CC1CC(CC2CCC(N)C(C)C2)CCC1N (stereo not drawn) [Bis(4-amino-3-methylcyclohexyl)methane] | 46.8 µM
CN(C)CCc1c[nH]c2ccc(C[C@H]3COC(=O)N3)cc12 [Zolmitriptan] | > 50 µM
CN1C(=O)CC(C)(c2ccccc2)C1=O (stereo not drawn) [Methsuximide] | > 50 µM
CN1C(CCl)Nc2cc(Cl)c(S(N)(=O)=O)cc2S1(=O)=O (stereo not drawn) [Methyclothiazide] | > 50 µM
Nc1ccc(S(=O)(=O)NC(=O)c2ccccc2)cc1 [Sulfabenzamide] | > 20 µM
O=[N+]([O-])c1ccc(CCO)cc1 [2-(4-Nitrophenyl)ethanol] | > 90 µM
O=C(O)c1ccc(OCCn2ccnc2)cc1 [Dazoxiben] | > 50 µM
CCC(C)(Oc1ccc(C2(c3ccc(OC(C)(CC)C(=O)O)cc3)CCCCC2)cc1)C(=O)O (stereo not drawn) [Clinofibrate] | > 50 µM
OC(c1ccc(F)cc1)(c1cncnc1)c1ccccc1Cl (stereo not drawn) [Nuarimol] | > 90 µM
Nc1ccc(Br)cc1 [4-Bromoaniline] | > 90 µM

SMILES | CC50 at 24 h
CC1=C(/C=C/C(C)=C/C=C/C(C)=C/C=C/C=C(C)/C=C/C=C(C)/C=C/C2=C(C)C[C@@H](O)CC2(C)C)C(C)(C)C[C@H](O)C1 [Zeaxanthin] | 28.9 µM
Fc1ccccc1-c1ccccc1 [2-Fluorobiphenyl] | > 90 µM
CC(C)N1C(=O)c2ccccc2NS1(=O)=O [Bentazone] | > 90 µM
CCCCCCCCOCCCN [3-(Octyloxy)propan-1-amine] | 11.8 µM
CCCC(=O)OCc1ccccc1 [Benzyl butyrate] | > 90 µM
Cn1c(N)c(N=O)c(=O)n(C)c1=O [6-Amino-1,3-dimethyl-5-nitroso-2,4(1H,3H)-pyrimidinedione] | > 90 µM
COc1ccc(CCC(C)=O)cc1 [4-(4-Methoxyphenyl)-2-butanone] | > 90 µM
O=Cc1ccccc1S(=O)(=O)O [Sodium 2-formylbenzenesulfonate] | > 90 µM
CCCCCC(O)/C=C/C=O (stereo not drawn) [(2E)-4-Hydroxy-2-nonenal] | > 50 µM
Fc1ccc([C@@]2(Cn3cncn3)O[C@@H]2c2ccccc2Cl)cc1 (racemic) [Epoxiconazole] | > 90 µM
C[C@H](CCCC(C)(C)O)[C@H]1CC[C@H]2[C@@H]3CC=C4C[C@@H](O)CC[C@]4(C)[C@H]3CC[C@]12C [25-Hydroxycholesterol] | > 50 µM
C=CCN1CCCC1CNC(=O)c1cc(S(N)(=O)=O)cc(OC)c1OC (stereo not drawn) [Veralipride] | > 50 µM
Oc1ccc(Sc2ccc(O)cc2)cc1 [4,4'-Thiodiphenol] | 47.9 µM
Cc1cccc(C)c1OCC(C)N (stereo not drawn) [Mexiletene hydrochloride] | > 50 µM
CCOC(=O)NC(O)C(Cl)(Cl)Cl (stereo not drawn) [Carbocloral] | > 50 µM
CNC(=O)Oc1cccc2ccccc12 [Carbaryl] | > 90 µM
NCC(O)CC(=O)O (stereo not drawn) [4-Amino-3-hydroxybutyric acid] | > 50 µM
Cn1c(=O)c2c(ncn2CC(O)CO)n(C)c1=O (stereo not drawn) [Dyphylline] | > 20 µM
CC(C)NCC(O)c1ccc2ccccc2c1 (stereo not drawn) [Pronethalol] | > 50 µM
OC[C@H]1O[C@@H]2O[C@H]3[C@H](O)[C@@H](O)[C@@H](O[C@H]4[C@H](O)[C@@H](O)[C@@H](O[C@H]5[C@H](O)[C@@H](O)[C@@H](O[C@H]6[C@H](O)[C@@H](O)[C@@H](O[C@H]7[C@H](O)[C@@H](O)[C@@H](O[C@H]8[C@H](O)[C@@H](O)[C@@H](O[C@H]9[C@H](O)[C@@H](O)[C@@H](O[C@H]1[C@H](O)[C@H]2O)O[C@@H]9CO)O[C@@H]8CO)O[C@@H]7CO)O[C@@H]6CO)O[C@@H]5CO)O[C@@H]4CO)O[C@@H]3CO [gamma-Cyclodextrin] | > 30 µM
CCCCCCCCCCOc1cc2c(O)c(C(=O)OCC)cnc2cc1OCC [Decoquinate] | > 50 µM
CCN1/C(=C/C=C/c2sc3ccccc3[n+]2CC)Sc2ccccc21 [3,3'-Diethylthiacarbocyanine iodide] | 1.67 µM
CN[C@H]1C[C@@H](N)[C@H](O)[C@@H](O[C@@H]2O[C@H](CO)[C@H](O)[C@@H]3OC4(O[C@H]23)O[C@H]([C@@H](N)CO)[C@H](O)[C@H](O)[C@H]4O)[C@@H]1O (stereo partly drawn) [Hygromycin B] | > 50 µM

SMILES | CC50 at 24 h
CCCCC(CC)COCC1CO1 (stereo not drawn) [2-Ethylhexyl glycidyl ether] | > 90 µM
c1ccc2sc(SSc3nc4ccccc4s3)nc2c1 [2,2'-Dithiobisbenzothiazole] | > 50 µM
COc1ccc(C(=O)c2ccc(OC)cc2O)c(O)c1 [2,2'-Dihydroxy-4,4'-dimethoxybenzophenone] | > 90 µM
CCN(CC)CCOc1ccccc1C(=O)CCc1ccccc1 [Etafenone] | 18.1 µM
CC(C)OC(=O)c1cc(C(=O)OC(C)C)cc([N+](=O)[O-])c1 [Nitrothal-isopropyl] | > 90 µM
C(=C(c1ccccc1)c1ccccc1)c1ccccc1 [Triphenylethylene] | > 90 µM
O=C1O[C@H]([C@H](O)CO)C(O)=C1O [Isoascorbic acid] | > 90 µM
CC(C)NC(=O)c1ccccc1N [2-Amino-N-(1-methylethyl)benzamide] | > 90 µM
Clc1ccc(C(Cn2ccnc2)OCc2c(Cl)cccc2Cl)c(Cl)c1 (stereo not drawn) [Isoconazole] | 13.8 µM
CC1=NS(=O)(=O)c2cc(Cl)ccc2N1 [Diazoxide] | > 50 µM
CCCCCCC[N+](CC)(CC)CCCCc1ccc(Cl)cc1 [Clofilium tosylate] | > 20 µM
Nc1ccc(O)c([N+](=O)[O-])c1 [4-Amino-2-nitrophenol] | > 90 µM
CC(C)(C)C(=O)Cl [2,2-Dimethylpropanoyl chloride] | > 90 µM
N[C@@H](Cc1ccc(O)c(O)c1)C(=O)O [L-Dopa] | > 50 µM
Nc1c2ccccc2nc2ccccc12 [9-Aminoacridine, monohydrochloride, monohydrate] | > 90 µM
CN[C@@H]1CCc2[nH]c3ccc(C(N)=O)cc3c2C1 [Frovatriptan Succinate monohydrate] | > 50 µM
CC1=CCC(O)(C(C)C)CC1 (stereo not drawn) [4-Methyl-1-(propan-2-yl)cyclohex-3-en-1-ol] | > 90 µM
Cc1cc(C2CCCCC2)n(O)c(=O)c1 [Ciclopirox olamine] | 1.9 µM
CO[C@@H]1[C@@H](O[C@@H]2O[C@H](C)[C@@H](O[C@H]3C[C@@](C)(O)[C@@H](OC(=O)CC(C)C)[C@H](C)O3)[C@H](N(C)C)[C@H]2O)[C@@H](CC=O)C[C@@H](C)C(=O)/C=C/[C@@H]2O[C@H]2C[C@@H](C)OC(=O)C[C@H]1OC(C)=O [Carbomycin A] | 34.1 µM
CN=C(N)NC(=O)Nc1c(C)cccc1C [Lidamidine] | > 50 µM
CCCCC(CC)COCCO (stereo not drawn) [2-(2-Ethylhexyloxy)ethanol] | > 90 µM
Cc1ccccc1N1C(=O)c2cc(S(N)(=O)=O)c(Cl)cc2NC1C (stereo not drawn) [Metolazone] | > 50 µM
CCc1cnc(C2=NC(C)(C(C)C)C(=O)N2)c(C(=O)O)c1 (stereo not drawn) [Imazethapyr] | > 90 µM

Same assay, conditions: rat, gh3-tre-luc cells, AC50 (uM) modified / 1000, Tox21_110001=Tox21_110893; viability, 1 nM T3 present, 24 h

SMILES | CC50 at 24 h
C[C@]12CCC(=O)C=C1CC[C@@H]1[C@@H]2CC[C@]2(C)C(=O)CC[C@@H]12 [4-Androstene-3,17-dione] | > 50 µM

Same assay, conditions: rat, gh3-tre-luc cells, AC50 (uM) modified / 1000, Tox21_110001=Tox21_111098; viability, 1 nM T3 present, 24 h

SMILES | CC50 at 24 h
Oc1c(Br)cc(Br)cc1Br [2,4,6-Tribromophenol] | > 50 µM

Same assay, conditions: rat, gh3-tre-luc cells, AC50 (uM) modified / 1000, Tox21_110001=Tox21_111849; viability, 1 nM T3 present, 24 h

SMILES | CC50 at 24 h
N#CC1(N2CCCCC2)CCCCC1 [1-Piperidinocyclohexanecarbonitrile] | > 50 µM

Same assay, conditions: rat, gh3-tre-luc cells, AC50 (uM) modified / 1000, Tox21_110001=Tox21_201273; viability, 1 nM T3 present, 24 h

SMILES | CC50 at 24 h
Oc1c(Br)cc(Br)cc1Br [2,4,6-Tribromophenol] | > 90 µM

Same assay, conditions: rat, gh3-tre-luc cells, AC50 (uM) modified / 1000, Tox21_110001=Tox21_201753; viability, 1 nM T3 present, 24 h

SMILES | CC50 at 24 h
CCOC(=O)C(O)(c1ccc(Cl)cc1)c1ccc(Cl)cc1 [Chlorobenzilate] | 58.2 µM

Same assay, conditions: rat, gh3-tre-luc cells, AC50 (uM) modified / 1000, Tox21_110001=Tox21_201756; viability, 1 nM T3 present, 24 h

SMILES | CC50 at 24 h
CCOP(=S)(OCC)OP(=S)(OCC)OCC [Sulfotepp] | > 90 µM

Same assay, conditions: rat, gh3-tre-luc cells, AC50 (uM) modified / 1000, Tox21_110001=Tox21_202269; viability, 1 nM T3 present, 24 h

SMILES | CC50 at 24 h
C[C@]12CCC(=O)C=C1CC[C@@H]1[C@@H]2CC[C@]2(C)C(=O)CC[C@@H]12 [4-Androstene-3,17-dione] | > 90 µM

Same assay, conditions: rat, gh3-tre-luc cells, AC50 (uM) modified / 1000, Tox21_110001=Tox21_300594; viability, 1 nM T3 present, 24 h

SMILES | CC50 at 24 h
CCOC(=O)C(O)(c1ccc(Cl)cc1)c1ccc(Cl)cc1 [Chlorobenzilate] | 54.6 µM

Same assay, conditions: rat, gh3-tre-luc cells, AC50 (uM) modified / 1000, Tox21_110001=Tox21_301029; viability, 1 nM T3 present, 24 h

SMILES | CC50 at 24 h
CCCCOC(=O)[C@@H](C)Oc1ccc(Oc2ccc(C#N)cc2F)cc1 [Cyhalofop-butyl] | > 90 µM
